In assay [1] the test system is Trypanosoma cruzi. The assay is described as follows: Antitrypanosomatid activity against Trypanosoma cruzi CL Brener epimastigotes assessed as reduction of growth after 5 days. Particulars: 120 h. It is filed as functional, organism-based.
The subject of assay [2] is Trypanosoma cruzi. Briefly: Antitrypanosomatid activity against Trypanosoma cruzi Tulahuen 2 epimastigotes assessed as reduction of growth after 5 days. The class given is functional, organism-based. Conditions: Tulahuen 2, 120 h.
The nature of assay [3]: Ratio of IC50 for human THP1 cells to IC50 for Trypanosoma cruzi Tulahuen 2 epimastigotes. The class given is functional, THP-1.
The nature of assay [4]: Ratio of IC50 for human THP1 cells to IC50 for Trypanosoma cruzi Y epimastigotes. The class given is functional, THP-1.
Assay [5] is described as follows: Ratio of IC50 for human THP1 cells to IC50 for Trypanosoma cruzi CL Brener epimastigotes. It is filed as functional, THP-1.
The test system of assay [6] is Trypanosoma cruzi. The assay is described as follows: Antitrypanosomatid activity against Trypanosoma cruzi Y epimastigotes assessed as reduction of growth after 5 days. It is filed as functional, organism-based. Particulars: 120 h.
The test system of a further assay is THP-1. The assay is described as follows: Cytotoxicity against human THP1 cells assessed as reduction of cell viability after 48 hrs. The class given is cell-based. Particulars: THP-1, 48 h.

pIC50: −log10 of the molar value. Where only a bound is given, the exact number is not on record here.

The pIC50 is −log10 of the IC50, conventionally taken in molar units. With `O=[N+]([O-])c1ccccc1/C=C\c1ccc2c(c1)no[n+]2[O-]`, the pIC50 in the assay with Trypanosoma cruzi [1] is 4.86; with Trypanosoma cruzi [2], 4.61.

Consider `N#Cc1ccc(/C=C\c2ccc3c(c2)no[n+]3[O-])cc1`, for which, in the assay on Trypanosoma cruzi [2], the pIC50 is under 4.60.

Turning to `[O-][n+]1onc2cc(/C=C\c3ccccc3)ccc21`, the figures for the “Ratio IC50” value in assay [3], in assay [4] and in assay [5] were 8.9, 7 and 4, respectively.

On to `[O-][n+]1onc2cc(/C=C/C3CCCCC3)ccc21`, for which, in the assay with Trypanosoma cruzi [2], the pIC50 is 4.87.

Turning to `[O-][n+]1onc2cc(/C=C/c3ccc(C(F)(F)F)cc3)ccc21`, the pIC50 with Trypanosoma cruzi [1] was 5.35; in the assay with Trypanosoma cruzi [6], 5.00.

For the compound `[O-][n+]1onc2cc(C=Cc3ccc4c(c3)OCO4)ccc21`, the negative logarithm of the IC50 (pIC50) in the assay on THP-1 is 4.09.

Regarding `CCCC/C=C/c1ccc2c(c1)no[n+]2[O-]`, the pIC50 in the assay on Trypanosoma cruzi [1] is 4.89; with Trypanosoma cruzi [2], 4.71.

As to `[O-][n+]1onc2cc(/C=C\c3ccc(Cl)cc3)ccc21`, the negative-log IC50 (pIC50) in the assay with THP-1 is 4.01.

Regarding `N#Cc1ccc(/C=C/c2ccc3c(c2)no[n+]3[O-])cc1`, in the assay with Trypanosoma cruzi [2], the pIC50 is under 4.60.

For the compound `[O-][n+]1onc2cc(/C=C/c3cccs3)ccc21`, the pIC50 is 4.82 in the assay with Trypanosoma cruzi [1], 4.91 in the assay with Trypanosoma cruzi [6] and 6.22 with Trypanosoma cruzi [2].

Regarding `[O-][n+]1onc2cc(/C=C/c3cccc(F)c3)ccc21`, the figures for the pIC50 with Trypanosoma cruzi [1], with Trypanosoma cruzi [6] and in the assay on Trypanosoma cruzi [2] were 5.00, 5.12 and 5.60, respectively.

Regarding `[O-][n+]1onc2cc(/C=C/c3ccc(O)cc3)ccc21`, the values for the pIC50 with Trypanosoma cruzi [1], in the assay on Trypanosoma cruzi [6] and in the assay with Trypanosoma cruzi [2] were 4.65, 4.60 and 4.99, respectively.

As to `O=C(O)c1ccc(/C=C/c2ccc3c(c2)no[n+]3[O-])cc1`, in the assay with Trypanosoma cruzi [2], the pIC50 is under 4.60.

For `O=C(O)c1ccc(/C=C\c2ccc3c(c2)no[n+]3[O-])cc1`, the pIC50 in the assay with Trypanosoma cruzi [2] was under 4.60.

Take `[O-][n+]1onc2cc(/C=C/c3ccncc3)ccc21`: the figures for the pIC50 in the assay on Trypanosoma cruzi [6] and in the assay with Trypanosoma cruzi [2] were 4.62 and 4.82, respectively.

In the case of `[O-][n+]1onc2cc(/C=C/c3ccc(Cl)cc3)ccc21`, in the assay with THP-1, the pIC50 is under 3.70.

As to `C(=C/c1ccc2nonc2c1)/c1ccc2c(c1)OCO2`, the pIC50 with Trypanosoma cruzi [1] was under 4.60; in the assay with Trypanosoma cruzi [6], under 4.60; in the assay with THP-1, under 3.40; with Trypanosoma cruzi [2] it was under 4.60. For the same compound, the “Ratio IC50” value in assay [3], in assay [4] and in assay [5] was under 40 in each case.

Consider `COc1ccc(/C=C/c2ccc3c(c2)no[n+]3[O-])cc1`, for which the pIC50 is 5.30 in the assay on Trypanosoma cruzi [1], 5.07 in the assay with Trypanosoma cruzi [6] and 5.10 in the assay with Trypanosoma cruzi [2].

Turning to `COC(=O)/C=C/c1ccc2c(c1)no[n+]2[O-]`, in the assay on Trypanosoma cruzi [2], the pIC50 was under 4.60.

As for `CN(C/C=C/C#CC(C)(C)C)Cc1cccc2ccccc12` [TERBINAFINE], the “Ratio IC50” value in assay [4] was 7.4; in assay [5], 7.8.

Regarding `C(=C\c1ccc2nonc2c1)/c1ccc2c(c1)OCO2`, the pIC50 in the assay on Trypanosoma cruzi [1], in the assay on Trypanosoma cruzi [6] and in the assay with Trypanosoma cruzi [2] was under 4.60 in each case.

For the compound `[O-][n+]1onc2cc(C=Cc3ccc(Cl)cc3)ccc21`, the pIC50 in the assay with Trypanosoma cruzi [1] was 5.12; in the assay with Trypanosoma cruzi [6] it was 5.05; in the assay on THP-1, 4.18. Moreover, the “Ratio IC50” value in assay [3] came to 15.5; in assay [4], 7.4; in assay [5], 8.9.

`O=[N+]([O-])c1ccc(/C=C/c2ccc3c(c2)no[n+]3[O-])s1`: the pIC50 in the assay with Trypanosoma cruzi [1] is 5.46; in the assay with Trypanosoma cruzi [6] it was 5.35; with Trypanosoma cruzi [2], 5.22.

With `[O-][n+]1onc2cc(/C=C\c3ccc4nonc4c3)ccc21`, the pIC50 in the assay with Trypanosoma cruzi [2] was under 4.60.

As to `[O-][n+]1onc2cc(/C=C/c3ccc(Br)cc3)ccc21`, the pIC50 in the assay with Trypanosoma cruzi [1] is 5.60; in the assay on Trypanosoma cruzi [6], 5.26; with Trypanosoma cruzi [2], 5.06.

`CC(=O)N1CCN(c2ccc(OCC3COC(Cn4ccnc4)(c4ccc(Cl)cc4Cl)O3)cc2)CC1` (stereo not given) [KETOCONAZOLE]: the “Ratio IC50” value in assay [3] worked out at 4.4; in assay [4], 4.5; in assay [5] it was 8.8.

With `[O-][n+]1onc2cc(/C=C\c3ccc4c(c3)OCO4)ccc21`, the pIC50 in the assay on Trypanosoma cruzi [1] was 5.05; in the assay on Trypanosoma cruzi [6] it was 5.07; with THP-1 it was 3.92; in the assay with Trypanosoma cruzi [2] it was 5.54. In addition, the “Ratio IC50” value in assay [3] is on record as 41.4; in assay [4], 14.1; in assay [5], 13.3.

As to `CC(=O)Nc1ccc(/C=C\c2ccc3c(c2)no[n+]3[O-])cc1[N+](=O)[O-]`, the pIC50 with Trypanosoma cruzi [2] was 4.62.

With `CN(C)c1ccc(/C=C/c2ccc3c(c2)no[n+]3[O-])cc1`, the pIC50 with Trypanosoma cruzi [1] was 5.36; in the assay with Trypanosoma cruzi [6], 4.66; in the assay with THP-1, under 3.40; in the assay on Trypanosoma cruzi [2] it was 4.80. Also, the “Ratio IC50” value in assay [3] is on record as over 25; in assay [4], over 18; in assay [5] it was over 90.

As to `[O-][n+]1onc2cc(/C=C/c3ccc4c(c3)OCO4)ccc21`, the pIC50 was 5.05 in the assay with Trypanosoma cruzi [1], 5.14 in the assay with Trypanosoma cruzi [6], 3.66 in the assay on THP-1 and 5.28 in the assay with Trypanosoma cruzi [2]. In addition, the entries for the “Ratio IC50” value in assay [3], in assay [4] and in assay [5] were 41.5, 30.1 and 24.4, respectively.

On to `C=Cc1ccc2c(c1)no[n+]2[O-]`, for which the pIC50 with Trypanosoma cruzi [2] is under 4.60.

Turning to `O=[N+]([O-])c1ccc(/C=C\c2ccc3c(c2)no[n+]3[O-])cc1`, the figures for the negative logarithm of the IC50 (pIC50) in the assay on Trypanosoma cruzi [1] and in the assay on Trypanosoma cruzi [6] were 4.98 and 4.87, respectively.

`[O-][n+]1onc2cc(/C=C/c3ccccc3)ccc21`: the pIC50 with THP-1 was 3.83.

On to `O=[N+]([O-])c1ccccc1/C=C/c1ccc2c(c1)no[n+]2[O-]`, for which the pIC50 in the assay with Trypanosoma cruzi [1] was 4.95; in the assay with Trypanosoma cruzi [2] it was 4.58.

For `CN(C)c1ccc(/C=C/c2ccc3nonc3c2)cc1`, the pIC50 in the assay on Trypanosoma cruzi [1] and with Trypanosoma cruzi [2] was under 4.60 in each case.
